Article PMC7413516, “Antidepressant-like activity and safety profile evaluation of 1H-imidazo[2,1-f]purine-2,4(3H,8H)-dione derivatives as 5-HT1A receptor partial agonists” (PLoS ONE, 2020)

Columns and labels:
[1] = parameters: method as in PMID 27353547; conditions: ref [8]; cited from earlier work
[2] = biological target: serotonergic 5-HT1A receptor (5-HT1AR); parameters: method as in PMID 27353547; conditions: ref [8]; cited from earlier work
PDE10A = system: PDE10A; parameters: method as in PMID 27353547; conditions: in vitro, bioluminescent detection system; ref [8]; cited from earlier work
[3] = system: adrenergic α1 receptors (α1R); assay: Pressor response to methoxamine in anesthetized normotensive rats (adrenolytic activity); type: in vivo, Wistar rats; conditions: 10 mg/kg; for mean reduction of blood pressure vs. methoxamine alone: 30 min prior to methoxamine 150 μg/kg
Experimental: In a separate series of experiments on anesthetized normotensive rats, the effect of studied compounds on the pressor response to methoxamine (Sigma Aldrich) (150 μg/kg) was investigated. Pressor responses to methoxamine injected intravenously were measured before and 30 min after the administration of the tested compound. The amplitudes of the pressure values were measured in 4 independent experiments.

human serotonin 5-HT1AR = biological target: T1, human serotonin 5-HT1AR (Homo sapiens, UniProt P08908); assay: cAMP inhibition (LANCE Ultra cAMP, forskolin-stimulated CHO-K1 cells); conditions: for Emax: CHO-K1, read-out: Emax (%) ± SEM, agonist mode
T1 sequence (P08908 1-422): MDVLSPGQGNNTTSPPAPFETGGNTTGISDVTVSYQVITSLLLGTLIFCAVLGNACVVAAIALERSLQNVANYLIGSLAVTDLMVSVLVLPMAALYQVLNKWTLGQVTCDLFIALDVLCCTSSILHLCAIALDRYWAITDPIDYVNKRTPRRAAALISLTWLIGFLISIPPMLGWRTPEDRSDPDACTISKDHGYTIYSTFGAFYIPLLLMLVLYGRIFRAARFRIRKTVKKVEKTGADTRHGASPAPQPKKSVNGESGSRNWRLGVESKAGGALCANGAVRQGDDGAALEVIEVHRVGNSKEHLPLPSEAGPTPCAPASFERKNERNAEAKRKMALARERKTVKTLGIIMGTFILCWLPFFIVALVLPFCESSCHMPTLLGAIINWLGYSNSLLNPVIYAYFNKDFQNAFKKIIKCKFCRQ
Experimental: CHO-K1 cell line transfected with 5-HT1A receptor, were commercially obtained from Perkin Elmer (Cat. No. ES-310-C, Lot Number M2W-C1). Cells were cultured according to manufacturer’s instruction.
The cells were cultured under selective conditions (400 μg/mL Geneticin G418). Thawed cells were resuspended in stimulation buffer (HBSS, 5 mM HEPES, 0.5 IBMX, and 0.1% BSA at pH 7.4) at 2 × 10^5 cells/mL. The same volume (10 μL) of cell suspension was added to tested compounds with 10 μM forskolin. Cell stimulation was performed for 40 min at room temperature. After incubation, cAMP measurements were performed with homogeneous TR-FRET immunoassay using the LANCE Ultra cAMP kit (PerkinElmer, USA) according to the manufacturer’s instruction (PerkinElmer). The TR-FRET signal was read on an EnVision microplate reader (PerkinElmer, USA).

[4] = Plasma glucose, triglyceride and cholesterol levels after repeated administration; type: in vivo, Swiss albino mice; conditions: mice, AZ-853 0.625, AZ-861 1.25 mg/kg b.w./day
Experimental: (§1) The Swiss albino mice were used in the experiment. AZ-853 and AZ-861 were injected once daily for 16 consecutive days. On the 1st and 15th day the administration of the compounds, 18-h spontaneous animal activity was registered (see below). FST, as described earlier, was performed on the 14th day just before the next treatment. To ensure that the effects observed in FST are not the result of increased motility of animals, on the 13th day, just before the next administration, the locomotor activity was measured as described earlier, from 2 to 6 min after test start, i.e. in the period identical to the duration of FST. Blood and organ collection was performed on the 17th day at 24 h after the last dose and fasting.
Blood samples were collected from the Swiss albino mice 24 h after the last administration of the tested compounds or vehicle. To determine glucose, cholesterol and triglyceride levels in the plasma, standard enzymatic spectrophotometric tests (Biomaxima S.A. Lublin, Poland) were used. In the presence of appropriate enzyme, the substrate was converted to a colored compound. Absorbance was measured at a wavelength of 500 nm. To determine alanine aminotransferase (ALAT) or γ-glutamyl transpeptidase (γ-GTP) activities in the plasma, the standard enzymatic spectrophotometric test (Biomaxima S.A.) was used. Absorbance was measured at 340 nm (ALAT) or 405 nm (γ-GTP).

mice = assay: Forced swim test (FST) in mice; type: in vivo, Swiss albino mice; conditions: for reduction of immobility time in FST: acute, 60 min before test; for effect of WAY-100635 on the antidepressant-like action of the compound in FST: compound 1.25 mg/kg i.p. + WAY-100635 0.3 mg/kg s.c.; for effect on immobility time in FST after repeated administration: i.p. once daily for 13 consecutive days, AZ-853 0.625 mg/kg, AZ-861 1.25 mg/kg
Text: The investigated compounds AZ-853 (8-(4-(4-(2-fluorophenyl)piperazin-1-yl)butyl)-1,3-dimethyl-1H-imidazo[2,1-f]purine-2,4(3H,8H)-dione and AZ-861 (1,3-dimethyl-8-(4-(4-(3-(trifluoromethyl)phenyl)piperazin-1-yl)butyl)-1H-imidazo[2,1-f]purine-2,4(3H,8H)-dione) were synthesised in the Department of Medicinal Chemistry, Faculty of Pharmacy, Jagiellonian University, and their synthesis was described earlier. AZ-853 and AZ-861 were suspended in 1% aqueous solution of Tween 80, and WAY-100635 (Sigma, Germany) was dissolved in 0.9% saline. In acute experiments, the selected compounds AZ-853 (0.156–2.5 mg/kg) and AZ-861 (0.625–2.5 mg/kg) were injected i.p. once 60 min before tests, whereas WAY-100635 (0.3 mg/kg) was administered subcutaneously (s.c.) 45 min before the test. […] In chronic experiments, AZ-853 and AZ-861 were administered i.p. once a day (between 9:00 AM and 10:00 AM) for 16 consecutive days at the minimum active doses selected from FST experiment, i.e. 0.625 and 1.25 mg/kg, respectively. All compounds were administered to mice at a volume of 10 ml/kg and to rats at a volume of 2 ml/kg. The control groups received 1% aqueous solution of Tween 80.
The experiment was carried out according to the method of Porsolt et al.. Swiss albino mice were individually placed in a glass cylinder (25 cm high; 10 cm in diameter) containing 10 cm of water maintained at 23–25°C, and were left there for 6 min. The total duration of immobility was recorded during the last 4 min of a 6-min. A mouse was regarded as immobile when it remained floating on the water, making only small movements to keep its head above it.
as §1

[5] = biological target: T2, histaminic H1 receptor (H1R) (Cavia porcellus, UniProt P31389); assay: Smooth muscle relaxant assay: histamine-induced contraction of isolated guinea pig ileum; conditions: isolated guinea pig small intestine, histamine 2 μM
T2 construct: from tissue; host or cells: isolated guinea pig ileum
T2 sequence (P31389 whole entry): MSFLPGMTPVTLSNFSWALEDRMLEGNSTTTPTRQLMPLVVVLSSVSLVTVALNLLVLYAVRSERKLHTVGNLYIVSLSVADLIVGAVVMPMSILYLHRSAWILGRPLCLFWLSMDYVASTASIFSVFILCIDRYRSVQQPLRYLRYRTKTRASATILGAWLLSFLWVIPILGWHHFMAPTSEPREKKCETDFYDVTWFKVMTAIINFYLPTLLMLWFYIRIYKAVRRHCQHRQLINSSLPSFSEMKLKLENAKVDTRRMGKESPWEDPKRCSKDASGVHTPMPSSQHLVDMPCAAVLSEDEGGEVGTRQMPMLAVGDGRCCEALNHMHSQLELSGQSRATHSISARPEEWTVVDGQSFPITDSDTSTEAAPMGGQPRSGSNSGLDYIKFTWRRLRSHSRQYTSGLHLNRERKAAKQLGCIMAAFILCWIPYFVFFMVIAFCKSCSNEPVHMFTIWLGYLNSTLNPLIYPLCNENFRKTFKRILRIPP
Experimental: The experiment was carried out according to the method described previously. Male guinea pigs were sacrificed by cervical dislocation. The ileum was rapidly removed, rinsed, and cut into segments of 1.5–2.0 cm length. The tissues were mounted on a jacketed 20 mL organ bath (Tissue Organ Bath System; 750 TOBS, DMT, Denmark) filled with Krebs’s solution (NaCl 120 mM, KCl 5.6 mM, MgCl2 2.2 mM, CaCl2 2.4 mM, NaHCO3 19 mM, glucose 10 mM). The bath was aerated with 95 % O2/5 % CO2 and heated at 37°C. During the 60-min incubation period, the organ was rinsed 4 times with fresh Krebs’s buffer, and the tissues were also pre-stimulated by 60 mM KCl solution. The submaximal contraction induced by histamine (Sigma Aldrich) (2 μM) and carbachol (Sigma Aldrich) (100 μM) was evaluated in the presence and absence of the tested compounds. Amplitudes of contraction values were measured in 4 independent experiments.

Row | Structure (SMILES) | estimated log p [1] | Ki [2] [nM] | PDE10A inhibitory activity (PDE10A) | mean reduction of blood pressure vs. methoxamine alone [3] [mmHg] | EC50 (human serotonin 5-HT1AR) [nM] | Emax (human serotonin 5-HT1AR) [%] | lower efficacy than 5-HT (human serotonin 5-HT1AR; cAMP inhibition) [fold] | lower potency than 5-HT (human serotonin 5-HT1AR; cAMP inhibition) [fold] | plasma glucose level vs. control [4] | plasma level of total cholesterol vs. control [4] | plasma level of triglycerides vs. control [4] | reduction of immobility time in FST (mice; 0.625 mg/kg i.p.) | reduction of immobility time in FST (mice; 1.25 mg/kg i.p.) | reduction of immobility time in FST (mice; 2.5 mg/kg i.p.) [%] | effect of WAY-100635 on the antidepressant-like action of the compound in FST (mice) | effect on immobility time in FST after repeated administration (mice) | inhibition at 1 µM [5] [%] | reversal of the effect of methoxamine [3] | higher potency than 5-HT (human serotonin 5-HT1AR; cAMP inhibition) [fold]
1 | Cn1c(=O)c2c(nc3n(CCCCN4CCN(c5ccccc5F)CC4)ccn23)n(C)c1=O [AZ-853, 8-(4-(4-(2-fluorophenyl)piperazin-1-yl)butyl)-1,3-dimethyl-1H-imidazo[2,1-f]purine-2,4(3H,8H)-dione] | 5.34 | 0.6 | did not induce PDE4B and PDE10A inhibitory activity | 95.5 | 15.8 | 43 ± 0.5 | 2.3 | 1.4 | did not influence the plasma glucose level | increased significantly | increased significantly | approximately 50% | ~58% | ~45 | completely abolished | decreased the immobility time | 94.8 | – | –
2 | Cn1c(=O)c2c(nc3n(CCCCN4CCN(c5cccc(C(F)(F)F)c5)CC4)ccn23)n(C)c1=O [AZ-861, 1,3-dimethyl-8-(4-(4-(3-(trifluoromethyl)phenyl)piperazin-1-yl)butyl)-1H-imidazo[2,1-f]purine-2,4(3H,8H)-dione] | 5.75 | 0.2 | did not induce PDE4B and PDE10A inhibitory activity | 40.45 | 4.37 | 76 ± 1.7 | 1.3 | – | did not influence the plasma glucose level | increased significantly | increased significantly | – | approximately 33% | – | attenuation of the anti-immobility effect | decreased the immobility time | 99.8 | approximately 40% | 2.6
